#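 Grown in 96-well plates, cells were treated for 48 hours with each compound at five concentrations. Insufficient inhibition: endpoint recorded as highest concentration tested. GI50 is the concentration that inhibits growth by half.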 Activity calls are given as the source filed them. No stated cut-off is given here; in the data, active = GI50 up to about 1.1 µM and inactive = higher.
# Key:
# Assay in all cases: NCI-60 cell line screen, 48 h
# 786-0 = system: 786-0
# A498 = system: A498
# A549 = system: A549
# ACHN = system: ACHN
# BT-549 = system: BT-549
# CAKI-1 = system: CAKI-1
# COLO 205 = system: COLO 205
# DU-145 = system: DU-145
# EKVX = system: EKVX
# HCC 2998 = system: HCC 2998
# HCT-116 = system: HCT-116
# HCT-15 = system: HCT-15
# HOP-62 = system: HOP-62
# HOP-92 = system: HOP-92
# Hs-578T = system: Hs-578T
# IGROV-1 = system: IGROV-1
# K562 = system: K562
# KM12 = system: KM12
# LOX IMVI = system: LOX IMVI
# M14 = system: M14
# MCF7 = system: MCF7
# MDA-MB-231 = system: MDA-MB-231
# MDA-MB-435 = system: MDA-MB-435
# MDA-N = system: MDA-N
# MOLT-4 = system: MOLT-4
# Malme-3M = system: Malme-3M
# NCI-H226 = system: NCI-H226
# NCI-H23 = system: NCI-H23
# NCI-H460 = system: NCI-H460
# NCI-H522 = system: NCI-H522
# NCI/ADR-RES = system: NCI/ADR-RES
# OVCAR-3 = system: OVCAR-3
# OVCAR-4 = system: OVCAR-4
# OVCAR-5 = system: OVCAR-5
# OVCAR-8 = system: OVCAR-8
# PC-3 = system: PC-3
# RPMI-8226 = system: RPMI-8226
# RXF 393 = system: RXF 393
# SF-268 = system: SF-268
# SF-295 = system: SF-295
# SF-539 = system: SF-539
# SK-MEL-28 = system: SK-MEL-28
# SK-MEL-2 = system: SK-MEL-2
# SK-MEL-5 = system: SK-MEL-5
# SK-OV-3 = system: SK-OV-3
# SN12C = system: SN12C
# SNB-19 = system: SNB-19
# SNB-75 = system: SNB-75
# SR = system: SR
# SW-620 = system: SW-620
# T47D = system: T47D
# TK-10 = system: TK-10
# U-251 = system: U-251
# UACC-257 = system: UACC-257
# UACC-62 = system: UACC-62
# UO-31 = system: UO-31
# CCRF-CEM = system: CCRF-CEM
# HL-60 = system: HL-60
# HT-29 = system: HT-29
structure (smiles),measurement,setting,value
COc1cc2cc(C(=O)N3CC(CCl)c4c3cc(NCCN)c3ccccc43)[nH]c2c(OC)c1OC (stereo not drawn),GI50,786-0,< 0.01 µM (active)
same,GI50,A498,< 0.01 µM (active)
same,GI50,A549,< 0.01 µM (active)
same,GI50,ACHN,< 0.01 µM (active)
same,GI50,BT-549,0.0333 µM (active)
same,GI50,CAKI-1,< 0.01 µM (active)
same,GI50,COLO 205,0.0112 µM (active)
same,GI50,DU-145,< 0.01 µM (active)
same,GI50,EKVX,< 0.0126 µM (active)
same,GI50,HCC 2998,< 0.01 µM (active)
same,GI50,HCT-116,< 0.01 µM (active)
same,GI50,HCT-15,0.0105 µM
same,GI50,HOP-62,< 0.01 µM (active)
same,GI50,HOP-92,< 0.01 µM (active)
same,GI50,Hs-578T,< 0.01 µM (active)
same,GI50,IGROV-1,< 0.01 µM (active)
same,GI50,K562,< 0.01 µM (active)
same,GI50,KM12,< 0.01 µM (active)
same,GI50,LOX IMVI,< 0.01 µM (active)
same,GI50,M14,< 0.01 µM (active)
same,GI50,MCF7,< 0.01 µM (active)
same,GI50,MDA-MB-231,< 0.01 µM (active)
same,GI50,MDA-MB-435,< 0.01 µM (active)
same,GI50,MDA-N,< 0.0105 µM (active)
same,GI50,MOLT-4,< 0.01 µM (active)
same,GI50,Malme-3M,< 0.01 µM (active)
same,GI50,NCI-H226,0.0117 µM (active)
same,GI50,NCI-H23,< 0.01 µM (active)
same,GI50,NCI-H460,< 0.01 µM (active)
same,GI50,NCI-H522,< 0.01 µM (active)
same,GI50,NCI/ADR-RES,< 0.01 µM (active)
same,GI50,OVCAR-3,0.0123 µM (active)
same,GI50,OVCAR-4,0.0116 µM (active)
same,GI50,OVCAR-5,< 0.01 µM (active)
same,GI50,OVCAR-8,< 0.01 µM (active)
same,GI50,PC-3,< 0.01 µM (active)
same,GI50,RPMI-8226,< 0.01 µM (active)
same,GI50,RXF 393,< 0.01 µM (active)
same,GI50,SF-268,< 0.01 µM (active)
same,GI50,SF-295,< 0.01 µM (active)
same,GI50,SF-539,< 0.01 µM (active)
same,GI50,SK-MEL-28,0.0134 µM (active)
same,GI50,SK-MEL-2,< 0.01 µM (active)
same,GI50,SK-MEL-5,< 0.01 µM (active)
same,GI50,SK-OV-3,< 0.0189 µM (active)
same,GI50,SN12C,< 0.01 µM (active)
same,GI50,SNB-19,< 0.01 µM (active)
same,GI50,SNB-75,0.0102 µM (active)
same,GI50,SR,< 0.01 µM (active)
same,GI50,SW-620,< 0.01 µM (active)
same,GI50,T47D,< 0.01 µM (active)
same,GI50,TK-10,< 0.01 µM (active)
same,GI50,U-251,< 0.01 µM (active)
same,GI50,UACC-257,0.0105 µM (active)
same,GI50,UACC-62,< 0.01 µM (active)
same,GI50,UO-31,< 0.01 µM (active)
CCc1[nH]c(=O)nc(N)c1-c1ccc(N2CCCCC2)c([N+](=O)[O-])c1,GI50,786-0,> 100 µM (inactive)
same,GI50,A498,> 100 µM (inactive)
same,GI50,A549,> 100 µM (inactive)
same,GI50,ACHN,> 100 µM (inactive)
same,GI50,BT-549,> 100 µM (inactive)
same,GI50,CAKI-1,> 100 µM (inactive)
same,GI50,CCRF-CEM,> 100 µM (inactive)
same,GI50,COLO 205,> 100 µM (inactive)
same,GI50,DU-145,> 100 µM (inactive)
same,GI50,EKVX,> 100 µM (inactive)
same,GI50,HCC 2998,> 100 µM (inactive)
same,GI50,HCT-116,> 100 µM (inactive)
same,GI50,HCT-15,> 100 µM
same,GI50,HL-60,88.7 µM (inactive)
same,GI50,HOP-62,> 100 µM (inactive)
same,GI50,HOP-92,> 100 µM (inactive)
same,GI50,HT-29,> 100 µM (inactive)
same,GI50,Hs-578T,53.2 µM (inactive)
same,GI50,IGROV-1,> 100 µM (inactive)
same,GI50,K562,> 100 µM (inactive)
same,GI50,KM12,> 100 µM (inactive)
same,GI50,LOX IMVI,> 100 µM (inactive)
same,GI50,M14,> 100 µM (inactive)
same,GI50,MCF7,> 100 µM (inactive)
same,GI50,MDA-MB-231,98.4 µM (inactive)
same,GI50,MDA-MB-435,> 100 µM (inactive)
same,GI50,MDA-N,> 100 µM (inactive)
same,GI50,MOLT-4,> 100 µM (inactive)
same,GI50,NCI-H226,> 100 µM (inactive)
same,GI50,NCI-H23,> 100 µM (inactive)
same,GI50,NCI-H460,> 100 µM (inactive)
same,GI50,NCI-H522,> 100 µM (inactive)
same,GI50,NCI/ADR-RES,> 100 µM (inactive)
same,GI50,OVCAR-3,> 100 µM (inactive)
same,GI50,OVCAR-4,> 100 µM (inactive)
same,GI50,OVCAR-5,> 100 µM (inactive)
same,GI50,OVCAR-8,> 100 µM (inactive)
same,GI50,PC-3,> 100 µM (inactive)
same,GI50,RPMI-8226,> 100 µM (inactive)
same,GI50,RXF 393,> 100 µM (inactive)
same,GI50,SF-268,> 100 µM (inactive)
same,GI50,SF-295,> 100 µM (inactive)
same,GI50,SF-539,> 100 µM (inactive)
same,GI50,SK-MEL-28,> 100 µM (inactive)
same,GI50,SK-MEL-2,> 100 µM (inactive)
same,GI50,SK-MEL-5,> 100 µM (inactive)
same,GI50,SK-OV-3,> 100 µM (inactive)
same,GI50,SN12C,> 100 µM (inactive)
same,GI50,SNB-19,> 100 µM (inactive)
same,GI50,SNB-75,> 100 µM (inactive)
same,GI50,SR,> 100 µM (inactive)
same,GI50,SW-620,> 100 µM (inactive)
same,GI50,T47D,> 100 µM (inactive)
same,GI50,TK-10,> 100 µM (inactive)
same,GI50,U-251,> 100 µM (inactive)
same,GI50,UACC-257,> 100 µM (inactive)
same,GI50,UACC-62,> 100 µM (inactive)
same,GI50,UO-31,> 100 µM (inactive)
Cc1cc2c(cc1C)C(=O)C1(C2)Cc2c(C)ccc(C)c2C1=O (stereo not drawn),GI50,786-0,> 100 µM (inactive)
same,GI50,A549,> 100 µM (inactive)
same,GI50,ACHN,> 100 µM (inactive)
same,GI50,BT-549,> 100 µM (inactive)
same,GI50,CAKI-1,> 100 µM (inactive)
same,GI50,CCRF-CEM,> 100 µM (inactive)
same,GI50,COLO 205,> 100 µM (inactive)
same,GI50,DU-145,> 100 µM (inactive)
same,GI50,EKVX,> 100 µM (inactive)
same,GI50,HCC 2998,> 100 µM (inactive)
same,GI50,HCT-116,> 100 µM (inactive)
same,GI50,HCT-15,> 100 µM
same,GI50,HL-60,> 100 µM (inactive)
same,GI50,HOP-92,> 100 µM (inactive)
same,GI50,Hs-578T,84.5 µM (inactive)
same,GI50,IGROV-1,98.4 µM (inactive)
same,GI50,K562,> 100 µM (inactive)
same,GI50,KM12,> 100 µM (inactive)
same,GI50,LOX IMVI,> 100 µM (inactive)
same,GI50,M14,> 100 µM (inactive)
same,GI50,MCF7,> 100 µM (inactive)
same,GI50,MDA-MB-231,> 100 µM (inactive)
same,GI50,MDA-MB-435,> 100 µM (inactive)
same,GI50,MDA-N,> 100 µM (inactive)
same,GI50,MOLT-4,> 100 µM (inactive)
same,GI50,Malme-3M,84.9 µM (inactive)
same,GI50,NCI-H226,> 100 µM (inactive)
same,GI50,NCI-H460,> 100 µM (inactive)
same,GI50,NCI-H522,> 100 µM (inactive)
same,GI50,NCI/ADR-RES,> 100 µM (inactive)
same,GI50,OVCAR-3,> 100 µM (inactive)
same,GI50,OVCAR-4,> 100 µM (inactive)
same,GI50,OVCAR-5,> 100 µM (inactive)
same,GI50,OVCAR-8,> 100 µM (inactive)
same,GI50,PC-3,> 100 µM (inactive)
same,GI50,RPMI-8226,> 100 µM (inactive)
same,GI50,RXF 393,84.7 µM (inactive)
same,GI50,SF-268,> 100 µM (inactive)
same,GI50,SF-295,> 100 µM (inactive)
same,GI50,SF-539,> 100 µM (inactive)
same,GI50,SK-MEL-28,> 100 µM (inactive)
same,GI50,SK-MEL-2,> 100 µM (inactive)
same,GI50,SK-MEL-5,> 100 µM (inactive)
same,GI50,SN12C,> 100 µM (inactive)
same,GI50,SNB-19,> 100 µM (inactive)
same,GI50,SNB-75,> 100 µM (inactive)
same,GI50,SR,> 100 µM (inactive)
same,GI50,SW-620,> 100 µM (inactive)
same,GI50,T47D,25.2 µM (inactive)
same,GI50,TK-10,> 100 µM (inactive)
same,GI50,U-251,> 100 µM (inactive)
same,GI50,UACC-257,> 100 µM (inactive)
same,GI50,UACC-62,> 100 µM (inactive)
same,GI50,UO-31,> 100 µM (inactive)

# Reference: ChEMBL document CHEMBL1201862, “PubChem BioAssay data set” (2004)
